Values joined by “and” are separate entries in the source; they are usually repeats but may differ in a detail not shown here. Equal values may be shown once.
Target: D(2) dopamine receptor (Homo sapiens, UniProt P14416)
Sequence (P14416 whole entry): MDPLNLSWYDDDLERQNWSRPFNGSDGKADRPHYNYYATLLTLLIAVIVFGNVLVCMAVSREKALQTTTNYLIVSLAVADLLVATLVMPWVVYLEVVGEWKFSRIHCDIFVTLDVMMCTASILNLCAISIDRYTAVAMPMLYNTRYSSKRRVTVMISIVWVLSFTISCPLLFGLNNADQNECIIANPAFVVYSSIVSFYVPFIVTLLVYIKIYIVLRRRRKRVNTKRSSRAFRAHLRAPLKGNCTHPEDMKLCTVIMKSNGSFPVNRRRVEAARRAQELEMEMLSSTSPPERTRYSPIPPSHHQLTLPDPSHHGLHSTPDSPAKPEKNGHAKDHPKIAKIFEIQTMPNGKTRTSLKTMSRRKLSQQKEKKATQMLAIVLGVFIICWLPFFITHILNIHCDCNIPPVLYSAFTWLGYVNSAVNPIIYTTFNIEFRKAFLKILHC

- Ki: 0.6 nM and 2.3 nM and 0.66 nM and 0.73 nM and 2.5 nM
Compound: OCCN1CCN(CC/C=C2/c3ccccc3Sc3ccc(C(F)(F)F)cc32)CC1 [(cis) 2-{4-[3-(2-Trifluoromethyl-thioxanthen-9-ylidene)-propyl]-piperazin-1-yl}-ethanol(Flupentixol)]

Reference: BindingDB's records for PubMed 1828505 (University of Pennsylvania, 1991)
